In one series the test system is zebrafish larvae. The conditions noted are these: for "real" arrhythmia (atrium and ventricle beating very irregularly): bathing 6 hours; for induction of 2:1 atrioventricular block (atrium beats twice while the ventricle beats once): wild-type larvae bathed in drug, terfenadine 10 μM, astemizol 1 μM, diphenhydramine 100 μM, haloperidol 2 μM, droperidol 50 μM, thioridazin 10 μM, pimozide 0.5 μM, cisapride 5 μM; for arrest of the atrial and ventricular beat: 1 hour incubation. The protocol: About 50 zebrafish larvae were incubated for 2-7 d at 22-28° C. in petri dishes filled with 30 ml embryo medium.
At the day of the experiment 10 larvae were transferred to small petri dishes filled with 10 ml embryo medium, 0.5 ml MESAB solution (0.2% ethyl-m-aminobenzoate methane-sulfonate+1% Na2HPO4×2H2O, pH 7.2) and 10 μl of the respective drug (or +10 μl of a second drug) added from a 1000-fold stock solution prepared with DMSO, these three components were previously mixed in 50 ml plastic tubes (controls only receive 10 or 20 μl DMSO).
At certain time points the contractility of the heart and blood flow was monitored, and the heart rate was determined by counting the heart beat with the aid of a stereo-microscope.
In order to evaluate if zebrafish is a suitable model organism to study drug-induced QT-prolongation we investigated the effect of known QT-prolonging medicaments on the heart beat rate of zebrafish larvae. Compounds were added to the media in which the larvae were bathed and the heart beat rate was recorded by microscopy.

Series [1] deals with rapidly activating delayed rectifier current K^+ current IKr (Homo sapiens, UniProt Q12809). The conditions noted are these: cited from earlier work.
Sequence of rapidly activating delayed rectifier current K^+ current IKr (Q12809 whole entry): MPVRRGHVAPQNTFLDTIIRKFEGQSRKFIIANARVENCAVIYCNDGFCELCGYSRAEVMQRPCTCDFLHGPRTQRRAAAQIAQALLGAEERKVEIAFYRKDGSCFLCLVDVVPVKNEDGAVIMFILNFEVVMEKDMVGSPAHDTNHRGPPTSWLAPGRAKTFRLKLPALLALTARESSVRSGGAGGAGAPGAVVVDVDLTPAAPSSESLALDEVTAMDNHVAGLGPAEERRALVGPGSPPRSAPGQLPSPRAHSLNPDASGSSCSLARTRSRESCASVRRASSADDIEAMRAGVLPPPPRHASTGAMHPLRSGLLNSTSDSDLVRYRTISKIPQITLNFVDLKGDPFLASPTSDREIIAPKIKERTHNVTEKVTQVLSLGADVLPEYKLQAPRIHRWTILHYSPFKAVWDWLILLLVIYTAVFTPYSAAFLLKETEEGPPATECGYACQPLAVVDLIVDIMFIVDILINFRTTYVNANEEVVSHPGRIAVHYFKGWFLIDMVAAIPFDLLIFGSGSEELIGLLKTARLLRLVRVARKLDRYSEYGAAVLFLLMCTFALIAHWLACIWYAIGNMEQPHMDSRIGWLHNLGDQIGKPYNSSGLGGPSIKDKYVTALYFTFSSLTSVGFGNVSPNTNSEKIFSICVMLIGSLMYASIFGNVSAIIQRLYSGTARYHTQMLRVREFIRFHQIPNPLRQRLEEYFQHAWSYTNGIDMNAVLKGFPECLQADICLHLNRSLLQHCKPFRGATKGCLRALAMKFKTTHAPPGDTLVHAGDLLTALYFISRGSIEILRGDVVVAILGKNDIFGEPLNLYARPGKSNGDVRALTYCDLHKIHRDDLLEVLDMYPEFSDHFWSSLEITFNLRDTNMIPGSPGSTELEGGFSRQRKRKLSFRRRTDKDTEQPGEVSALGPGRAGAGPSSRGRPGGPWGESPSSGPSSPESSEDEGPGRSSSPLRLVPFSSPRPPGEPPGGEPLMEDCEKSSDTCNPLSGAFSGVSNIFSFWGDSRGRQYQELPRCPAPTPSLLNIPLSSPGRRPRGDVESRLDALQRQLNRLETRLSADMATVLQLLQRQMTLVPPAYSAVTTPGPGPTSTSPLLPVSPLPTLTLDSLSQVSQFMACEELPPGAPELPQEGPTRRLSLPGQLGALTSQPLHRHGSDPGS
The test system of the next series is ZERG. The series is described as follows: Antisense ZERG-knockdown: PMO injected into yolk of zebrafish embryos at the 1-4-cell stage, heart function and morphology scored. In kind it is in vivo. From the text: In one embodiment, preferred PMOs comprise a sequence complementary to contiguous nucleotides within nucleotides 1-150 of SEQ ID NO:1; an exemplary PMO sequence is presented in SEQ ID NO:3. As further detailed in the Examples, we generated an antisense PMO corresponding to the first 24 nucleotides of the ZERG coding sequence, as presented in SEQ ID NO:3, and injected these into the yolk of zebrafish embryos at the 1-4 cell stage, according to standard protocols. […] Thus, antisense PMOs may be used to knockdown the ZERG protein, and to phenocopy the breakdance mutant, as well as QT-prolonging drug-treated larvae.
24-mer antisense PMOs targeting the 5′ prime region of ZERG (SEQ ID NO:3; start 0-24: GACATGTCCGCGGCGCACGGGCAT) were injected at the 1-4-cell stage into the yolk of zebrafish embryos according to published methods (Nasevicius and Ekker, 2000). The PMO was obtained from AVI Biopharma (Corvallis, Oreg.) and was injected at 3, 6 and 9 ng per embryo, we used 50 embroys per concentration. The experiment was repeated five times. Heart function and morphological anaylsis of larvae were scored one to 5 d later. Controls included the injection of only the injection buffer.

[2] abbreviates: cardiac myocytes, electrophysiology.
Where [3] appears, read: 6 ng PMO per embryo, 2 days post-fertilization.

Like-named read-outs stand apart in the source and are kept apart here.

In the case of `COc1ccc(CCN2CCC(Nc3nc4ccccc4n3Cc3ccc(F)cc3)CC2)cc1` [astemizole], in the series with zebrafish larvae (100 nM), the “incubation time until 2:1 heart beat occurred” value amounted to 6 h. In addition, the “"real" arrhythmia (atrium and ventricle beating very irregularly)” value (shortened to “"real" arrhythmia”) in the series with zebrafish larvae (200 nM) is “arrhythmia occurred”. Further, in the series on zebrafish larvae, the “induction of 2:1 atrioventricular block (atrium beats twice while the ventricle beats once)” value (from here on “induction of 2:1 atrioventricular block”) was “induced a 2:1 atrioventricular block”.

Regarding `COc1cc(N)c(Cl)cc1C(=O)NC1CCN(CCCOc2ccc(F)cc2)CC1OC` (stereo not shown) [cisapride], the “block of IKr” value in series [1] (setting [2]) is “block”. In the series on zebrafish larvae (10 μM), the “"real" arrhythmia” value is listed as “arrhythmia occurred”. Also, the “arrest of the atrial and ventricular beat” value in the series on zebrafish larvae (25 μM) was “arrest of the atrial and ventricular beat”. Besides, in the series on zebrafish larvae, the “induction of 2:1 atrioventricular block” value was “induced a 2:1 atrioventricular block”.

Turning to `CN(C)CCOC(c1ccccc1)c1ccccc1` [diphenhydramine], the “induction of 2:1 atrioventricular block” value in the series on zebrafish larvae is listed as “induced a 2:1 atrioventricular block”.

`O=C(CCCN1CC=C(n2c(=O)[nH]c3ccccc32)CC1)c1ccc(F)cc1` [droperidol]: in the series with zebrafish larvae, the “induction of 2:1 atrioventricular block” value is reported as “induced a 2:1 atrioventricular block”.

Take `NC1=NCC2c3ccccc3Cc3ccccc3N12` (stereo not shown) [epinastine]: the “effect on heart beat rate” value with zebrafish larvae (up to 250 μM) is given as “did not affect heart beat rate”.

In the case of `O=C(CCCN1CCC(O)(c2ccc(Cl)cc2)CC1)c1ccc(F)cc1` [haloperidol], in series [1], the “block of IKr” value was “block”. In the series with zebrafish larvae (10 μM), the “"real" arrhythmia” value is reported as “arrhythmia occurred”. Also, in the series with zebrafish larvae, the “induction of 2:1 atrioventricular block” value is on record as “induced a 2:1 atrioventricular block”.

Turning to `O=c1[nH]c2ccccc2n1C1CCN(CCCC(c2ccc(F)cc2)c2ccc(F)cc2)CC1` [pimozide], in series [1], the “block of IKr” value was “block”. In addition, the “incubation time until 2:1 heart beat occurred” value with zebrafish larvae (200 nM) is on record as 3 h. Moreover, the “arrest of the atrial and ventricular beat” value in the series with zebrafish larvae (10 μM) is “arrest of the atrial and ventricular beat”. For the same molecule, the “induction of 2:1 atrioventricular block” value in the series on zebrafish larvae is reported as “induced a 2:1 atrioventricular block”.

For the molecule `CC(C)NCC(O)c1ccc(NS(C)(=O)=O)cc1` (stereo not shown) [sotalol], the “block of IKr” value in series [1] (setting [2]) is “block”.

As to `CC(C)(C)c1ccc(C(O)CCCN2CCC(C(O)(c3ccccc3)c3ccccc3)CC2)cc1` (stereo not shown) [terfenadine], the “induction of 2:1 atrioventricular block” value in the series with zebrafish larvae is “induced a 2:1 atrioventricular block”.

On to `CSc1ccc2c(c1)N(CCC1CCCCN1C)c1ccccc1S2` (stereo not shown) [thioridazine], for which the “"real" arrhythmia” value in the series on zebrafish larvae (10 μM) is “arrhythmia occurred”. Besides, the “induction of 2:1 atrioventricular block” value in the series with zebrafish larvae is given as “induced a 2:1 atrioventricular block”.

Turning to “PMO: 24-mer antisense PMO targeting the 5′ region of ZERG (SEQ ID NO:3): GACATGTCCGCGGCGCACGGGCAT (antisense GACATGTCCGCGGCGCACGGGCAT; all phosphorodiamidate morpholino (PMO))”, in the series on ZERG (3 ng PMO per embryo), the larvae appearing wild-type result is on record as “approximately 5%”, the “larvae showing a slight bradycardia” value is recorded as “approximately 81%” and the “larvae showing the 2:1 phenotype” value is recorded as “approximately 18%”. For the same molecule, the “bradycardia and other visible abnormalities” value with ZERG (6 ng PMO per embryo) is “All larvae showed a slight bradycardia and no other visible abnormalities”. For the same molecule, in the series with ZERG (setting [3]), the “embryos showing irregular arrhythmia, atrial beat rate strongly reduced and uncoordinated” value is listed as 28%; the “embryos showing the 2:1 heart beat” value was found to be 67%. Moreover, in the series with ZERG (6 ng PMO per embryo, day 3), the “larvae with a 2:1 heart beat” value was 10%. For the same molecule, the “phenotype compared with wildtype” value in the series with ZERG (6 ng PMO per embryo, day 5) is reported as “all larvae were indistinguishable from wildtype larvae”. Also, in the series with ZERG (9 ng PMO per embryo), the “day of death after strong necrosis beginning with day 4” value is ~6 days; the heart morphology entry is given as “changed to a pattern known for dilative cardiomyopathy”; the “larvae with strongly reduced heart beat rate and contractility, both chambers beating 1:1, circulation strongly reduced or absent” value came out at 90%. Also, in the series with ZERG (9 ng PMO per embryo, day 2), the “edema and blood accumulation” value was “heart edema and blood accumulated on the yolk sac”. Also, in the series on ZERG (injected into yolk at the 1-4 cell stage, dose not given), the “PMO-injected larvae displaying the 2:1 phenotype” value is “About 90%”.

These data come from patent publication US20030074682A1, “Isolation, characterization, and use of a novel teleost potassium channel” (priority 2001, published 2003).
